PMC10428001 (Cancer research, 2022)
Read-outs that look alike come from different tables or passages of the source.

How the values were obtained:
[1] = test system: Ba/F3 cells HER2 A775_G776insYVMA; test: Ba/F3 cell viability; format: cell-based; conditions: read-out: IC50 (average ± SD)
[2] = test system: Ba/F3 cells HER2 P780_Y781insGSP; test: Ba/F3 cell viability; format: cell-based; conditions: read-out: IC50 (average ± SD)
[3] = test system: Ba/F3 cells HER2 G776delinsVC; test: Ba/F3 cell viability; format: cell-based; conditions: read-out: IC50 (average ± SD)
[4] = test system: Ba/F3 cells HER2 M774delinsWLV; test: Ba/F3 cell viability; format: cell-based; conditions: read-out: IC50 (average ± SD)
Ba/F3 cells HER2 S310F = test: Ba/F3 cell viability; format: cell-based; conditions: read-out: IC50 (average ± SD)
Ba/F3 cells HER2 L755S = test: Ba/F3 cell viability; format: cell-based; conditions: read-out: IC50 (average ± SD)
Ba/F3 cells HER2 V777L = test: Ba/F3 cell viability; format: cell-based; conditions: read-out: IC50 (average ± SD)
Ba/F3 cells HER2 V862I = test: Ba/F3 cell viability; format: cell-based; conditions: read-out: IC50 (average ± SD)
[5] = test system: Ba/F3 cells HER2 755_757LREdelinsRP; test: Ba/F3 cell viability; format: cell-based; conditions: Mus musculus, BaF3, 72 h, read-out: IC50 (average ± SD)
[6] = test system: Ba/F3 cells HER2 amplification; test: Ba/F3 cell viability; format: cell-based; conditions: read-out: IC50 (average ± SD)
MCF7 = test: Cancer cell viability; format: cell-based, human; conditions: Homo sapiens, MCF7, 72 h, read-out: IC50 (average ± SD)
A-431 = test: Cancer cell viability; format: cell-based, human; conditions: read-out: IC50 (average ± SD); A-431, epidermoid, EGFR amp, 72 h
H1781 = test: Cancer cell viability; format: cell-based, human; conditions: Homo sapiens, NCI-H1781, 72 h, read-out: IC50 (average ± SD)
H1819 = test: Cancer cell viability; format: cell-based; conditions: Homo sapiens, NCI-H1819, 72 h, read-out: IC50 (average ± SD)
Calu-3 = test: Cancer cell viability; format: cell-based; conditions: Homo sapiens, Calu-3, 72 h, read-out: IC50 (average ± SD)
DFCI 429 = test: Patient-derived cancer cell viability; format: cell-based, human; conditions: Homo sapiens, 72 h, read-out: IC50 (average ± SD)
BT-474 = test: Cancer cell viability; format: cell-based, human; conditions: Homo sapiens, BT-474, 72 h, read-out: IC50 (average ± SD)
SKBR3 = test: Cancer cell viability; format: cell-based, human; conditions: Homo sapiens, SK-BR-3, 72 h, read-out: IC50 (average ± SD)
NCI-N87 = test: Cancer cell viability; format: cell-based, human; conditions: Homo sapiens, NCI-N87, 72 h, read-out: IC50 (average ± SD)
[7] = test system: Ba/F3 cells WT EGFR (+ rhEGF); test: Ba/F3 cell viability; format: cell-based; conditions: read-out: IC50 (average ± SD)
[8] = test system: WT EGFR vs all HER2 mutants Ba/F3 cells; test: Selectivity index from Ba/F3 IC50 ratios; format: cell-based; conditions: average over HER2 mutants

Row | Compound | IC50 ([1]; Mus musculus, BaF3, 72 h) [nM] | IC50 ([2]; Mus musculus, BaF3, 72 h) [nM] | IC50 ([3]; Mus musculus, BaF3, 72 h) [nM] | IC50 ([4]; Mus musculus, BaF3, 72 h) [nM] | IC50 (Ba/F3 cells HER2 S310F; Mus musculus, BaF3, 72 h) [nM] | IC50 (Ba/F3 cells HER2 L755S; Mus musculus, BaF3, 72 h) [nM] | IC50 (Ba/F3 cells HER2 V777L; Mus musculus, BaF3, 72 h) [nM] | IC50 (Ba/F3 cells HER2 V862I; Mus musculus, BaF3, 72 h) [nM] | IC50 [5] [nM] | IC50 ([6]; Mus musculus, BaF3, 72 h) [nM] | IC50 (MCF7) [nM] | IC50 (A-431) [nM] | IC50 (H1781) [nM] | IC50 (H1819) [nM] | IC50 (Calu-3) [nM] | IC50 (DFCI 429) [nM] | IC50 (BT-474) [nM] | IC50 (SKBR3) [nM] | IC50 (NCI-N87) [nM] | IC50 ([7]; Mus musculus, BaF3, 72 h) [nM] | further results
1 | CN(C)C/C=C/C(=O)Nc1cc2c(Nc3ccc(F)c(Cl)c3)ncnc2cc1O[C@H]1CCOC1 [afatinib] | 2.96 ± 1.29 | 5.17 ± 2.32 | 6.89 ± 6.66 | 8.75 ± 3.74 | 14.1 ± 20.6 | 83.2 ± 35.7 | 3.13 ± 0.21 | 22.1 ± 10.9 | 1.79 ± 1.39 | 2.75 ± 2.89 | 1970 | 73.9 ± 60.9 | 169 ± 84.6 | 29.5 ± 19.5 | 162 ± 110 | 163 ± 153 | 175 ± 136 | 117 ± 105 | 1.7 ± 0.2 |  | 
2 | C=CC(=O)N1CCC(Oc2cc3c(Nc4ccc(Cl)c(Cl)c4F)ncnc3cc2OC)CC1 [poziotinib] | 1.05 ± 0.67 | 1.28 ± 1.12 | 1.17 ± 0.86 | 3.45 ± 2.45 | 73.5 ± 41.1 | 523 ± 440 | 2.43 ± 0.77 | 29.3 ± 43 | 0.95 ± 0.94 | 1.08 ± 1.04 | 5940 | 59.9 ± 46.1 | 197 ± 147 | 75.5 ± 28.8 | 4.7 ± 2 | 744 ± 747 | 368 ± 414 | 929 | 0.7 | 1.41 ± 0.56 | 
3 | C=CC(=O)N1CCC[C@@H](n2nc(C(=O)Nc3ccc(CC(=O)N(C)C)c(C)c3C)c3c(N)ncnc32)C1 [TAS0728] |  |  |  |  |  |  |  |  |  |  |  |  |  |  |  |  |  |  |  |  | IC50 ([7]; Ba/F3 WT EGFR (+ rhEGF 10 ng/mL), 3 days): 399 ± 77.3 nM; IC50 ([1]; Ba/F3 HER2 A775_G776insYVMA, 3 days): 256 ± 175 nM; IC50 ([2]; Ba/F3 HER2 P780_Y781insGSP, 3 days): 80.1 ± 27 nM; IC50 ([3]; Ba/F3 HER2 G776delinsVC, 3 days): 626 ± 130 nM; IC50 ([4]; Ba/F3 HER2 M774delinsWLV, 3 days): 894 ± 509 nM; IC50 (Ba/F3 cells HER2 S310F; Ba/F3 HER2 S310F, 3 days): 238 ± 95 nM; IC50 (Ba/F3 cells HER2 L755S; Ba/F3 HER2 L755S, 3 days): 3760 ± 3080 nM; IC50 (Ba/F3 cells HER2 V777L; Ba/F3 HER2 V777L, 3 days): 19.2 ± 12.2 nM; IC50 (Ba/F3 cells HER2 V862I; Ba/F3 HER2 V862I, 3 days): 1320 ± 506 nM; IC50 ([6]; Ba/F3 HER2 amplification, 3 days): 288 ± 20.6 nM; Selectivity index (IC50 ratio = WT EGFR ÷ all HER2 mutants) [8]: 0.48
4 | CS(=O)(=O)CCNCc1ccc(-c2ccc3ncnc(Nc4ccc(OCc5cccc(F)c5)c(Cl)c4)c3c2)o1 [lapatinib] | 202 ± 70.2 | 210 ± 56 | 65.3 ± 49.7 | 621 ± 333 | 530 ± 407 | 845 ± 381 | 13.1 ± 5.79 | 336 ± 74.5 | 130 ± 18 | 177 ± 88.6 | 6790 |  | 2420 | 341 ± 171 | 248 ± 220 |  | 3780 | 5390 | 16.3 ± 6.6 | 302 ± 64.8 | 
